Source: PMC9774438, “Effects of Synthetic Short Cationic Antimicrobial Peptides on the Catalytic Activity of Myeloperoxidase, Reducing Its Oxidative Capacity” (Antioxidants, 2022)
Values joined by “and” are separate entries in the source; they are usually repeats but may differ in a detail not shown here. Identical values can stand only once. Where a SMILES comes first, the peptide text is derived from it.

Key:
myeloperoxidase (MPO) [1] = target: T1, myeloperoxidase (MPO) (Homo sapiens, UniProt P05164); test: Measurement of sulfhydryl groups with MPO/H2O2 (DTNB); type: biochemical; settings: for free sulfhydryl groups, percentage relative to CAMP + MPO without H2O2: 150 μM peptide, 1 μM MPO heme, 100 μM H2O2, 10 mM Na-phosphate pH 7.4, mean ± SD, * p < 0.05 where marked
T1 construct: Native myeloperoxidase (MPO) was obtained from human leukocyte extract by successive chromatography on heparin-Sepharose and phenyl-agarose; from tissue; host or cells: human leukocyte extract
T1 sequence (P05164 279-745 limits assumed): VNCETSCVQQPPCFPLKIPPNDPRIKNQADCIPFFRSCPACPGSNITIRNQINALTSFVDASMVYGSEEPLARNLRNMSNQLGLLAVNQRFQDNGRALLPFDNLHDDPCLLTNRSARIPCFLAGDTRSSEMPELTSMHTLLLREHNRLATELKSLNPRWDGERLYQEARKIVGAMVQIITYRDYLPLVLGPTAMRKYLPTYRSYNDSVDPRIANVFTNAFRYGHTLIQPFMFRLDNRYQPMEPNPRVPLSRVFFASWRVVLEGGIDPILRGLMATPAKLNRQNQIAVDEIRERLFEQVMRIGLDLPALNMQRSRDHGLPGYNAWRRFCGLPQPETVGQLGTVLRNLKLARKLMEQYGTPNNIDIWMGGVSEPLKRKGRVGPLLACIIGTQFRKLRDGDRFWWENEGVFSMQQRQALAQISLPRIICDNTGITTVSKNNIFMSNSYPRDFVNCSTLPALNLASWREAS
T1 sequence (P05164 165-273 limits assumed): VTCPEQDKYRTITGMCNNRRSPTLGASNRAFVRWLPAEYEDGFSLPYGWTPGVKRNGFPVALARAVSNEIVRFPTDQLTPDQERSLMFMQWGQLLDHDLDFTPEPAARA
Procedure: The peroxidase reaction was carried out in 10 mM Na-phosphate buffer, pH 7.4 (containing 0.2 mM DTPA), in a volume of 60 μl placed in the wells of a 96-well plate. Peptides were added to MPO (1 μM heme) to a concentration of 150 μM. Following 5 min of incubation, H2O2 (100 μM, final) was added to test samples to trigger the reaction. Control samples were the same except H2O2. The content of free sulfhydryl groups was estimated spectrophotometrically by using 5,5′-dithiobis(2-nitrobenzoic acid) (DTNB, Ellman’s reagent) prepared in 0.4 M Tris-HCl buffer, pH 9.0. At a desired time after the reaction was started, 120 μL aliquots of freshly prepared DTNB-containing buffer were added to one part of samples (160 μM DTNB, final) and […] of the buffer without DTNB was added to another part of the same samples. […] Absorbance in the absence of DTNB was subtracted from that in the presence of DTNB. The loss of sulfhydryl groups was expressed as a percentage relative to controls incubated without H2O2.
To determine an estimation of whether the cysteine residue of pept_1545 and Hm-AMP8 participated in MPO-mediated reactions, we compared the content of free sulfhydryl groups in the reaction mixtures of peptides (150 μM) with the MPO/H2O2 system (1 μM heme, 100 μM H2O2) and control samples containing peptides plus MPO with no added H2O2. Measurements of sulfhydryl groups were made at 5 min and 90 min of incubation (Table 2).

myeloperoxidase (MPO) [2] = target: T1, myeloperoxidase (MPO); test: MPO peroxidase activity (Amplex Red assay); type: biochemical; settings: for IC50: 50 μM Amplex Red, 25 μM H2O2, 50 mM K-phosphate pH 7.4, 5 min preincubation; for Ki: 20 μM pept_1545 or 2 μM Hm-AMP8, 50 mM K-phosphate pH 7.4, Hanes–Woolf
Procedure: MPO peroxidase activity was evaluated fluorometrically using Amplex Red^TM reagent which was oxidized by MPO to the fluorescent resorufin (λex = 530 nm, λem = 590 nm). The assay was performed in 96-plate format. The final reaction mixture in 50 mM K-phosphate buffer (pH 7.4) was as follows: MPO, 8 nM heme; peptide, […]; H2O2, 25 μM; Amplex Red reagent, 50 μM. MPO was preincubated with peptides for 5 min in a volume of 100 μl. Then, Amplex Red was added, and the enzymatic reaction was initiated by adding H2O2 (a final probe volume of 200 μL per well). The fluorescence measurement was made with a CLARIOstar multimodal plate reader (BMG Labtech, Ortenberg, Germany) at 5 min after the beginning of the reaction. To determine the type of CAMP-induced inhibition, KM and Vmax were obtained by varying substrates of MPO: Amplex Red in a final concentration from 1 to 62.5 μM, or H2O2 in a final concentration from 0.625 to 20 μM.
(§1) The Hannes-Wolf plots were made as ([Substrate]/V = f([Substrate]). KM was equal in magnitude to the intercept made on the abscissa axis by the approximating straight line; Vmax was calculated as a reciprocal value of the straight-line slope. The inhibition constant (Ki) for noncompetitive inhibition was calculated as follows: Ki = [I]/((Vmax − Vmax’)/Vmax’); Ki for competitive inhibition was calculated as follows: Ki = [I]/((KM’ − KM)/KM); Ki for mixed inhibition was calculated as follows: Ki = [I]/(((KM’ − KM)/KM)^2 + ((Vmax − Vmax’)/Vmax’))^2)^0.5; and Ki for uncompetitive inhibition was calculated as follows: Ki = [I]/(((KM − KM’)/KM’)^2 + ((Vmax – Vmax’)/Vmax’))^2)^0.5, where [I]—concentration of inhibitor (CAMP), KM—Michaelis constant without inhibitor, Vmax—maximal rate without inhibitor, KM’—Michaelis constant in the presence of inhibitor, Vmax’—maximal rate in the presence of inhibitor.
From the experiments with varying concentrations of H2O2 (0.01–200 μM) and Amplex Red (6.25–100 μM), the optimal concentrations of 25 μM H2O2 and 50 μM Amplex Red were chosen for further work. The 0.8–50 μM concentration range (corresponding to 100–6250 peptide molecules per heme) was used to determine the concentration dependence of the effect of CAMPs on peroxidase activity of MPO.

myeloperoxidase (MPO) [3] = target: T1, myeloperoxidase (MPO); test: MPO chlorinating activity (Celestine Blue B assay); type: biochemical; settings: for IC50: 0.8 nM MPO heme, 200 μM CB, 150 mM NaCl, 50 μM H2O2, 50 mM Na-acetate pH 5.5, 5 min preincubation
Procedure: MPO chlorinating activity was evaluated fluorometrically using Celestine Blue B (CB) which was oxidized to fluorescent glycol (λex = 487 nm, λem = 578 nm) by taurine N-chloramine produced in the reaction of taurine with HOCl generated by MPO [39]. The assay was performed in 96-plate format. MPO was preincubated with peptides for 5 min in a volume of 100 μL, with the concentrations being: MPO, 1.6 nM heme and peptide, 16 nM–16 μM. Then, 100 μL aliquots of CB-containing mix (CB, 400 µM; H2O2, 100 µM; taurine, 4 mM; KI, 10 µM; NaCl, 300 mM; 50 mM Na-acetate buffer, pH 5.5) were added to MPO/peptide and to 100 μL of HOCl standards (0–150 μM). The fluorescence measurement was made with a CLARIOstar multimodal plate reader (BMG Labtech, Ortenberg, Germany) at 15 min after the reaction started. Fluorescence intensity detected for HOCl standards of HOCl was used for calculating the chlorinating activity as mole of HOCl per mole of MPO heme per second. To determine the type of CAMP-induced inhibition, KM and Vmax were obtained by varying substrates of MPO: NaCl in a final concentration from 25 to 300 mM, or H2O2 in a final concentration from 5 to 80 µM.
as §1
Chlorinating activity is a distinctive feature of MPO as compared with other peroxidases and it is an important property, enabling MPO to combat microbes. We tested whether the inhibitory effects of pept_1545 and Hm-AMP8 on peroxidase activity extend to MPO chlorinating activity. Chlorinating activity was measured using a fluorometric CB-based assay. To determine the concentration dependence of the effect of CAMPs on MPO chlorinating activity, the 0.008–8 μM concentration range (corresponding to 10–10,000 peptide molecules per heme) was used.

MPO = settings: MPO/H2O2 system; ref [57]; cited from earlier work
[4] = 0.625–20 μM H2O2, 50 μM Amplex Red, 8 nM MPO heme, read-out: Inhibition constant (Ki) towards H2O2, peroxidase activity
[5] = 1–62.5 μM Amplex Red, 25 μM H2O2, 8 nM MPO heme, read-out: Inhibition constant (Ki) towards Amplex Red
[6] = 8 μM pept_1545 or 0.8 μM Hm-AMP8, 25–300 mM NaCl, 50 μM H2O2, 0.8 nM MPO, 50 mM Na-acetate pH 5.5, Hanes–Woolf, read-out: Inhibition constant (Ki) towards Cl−
[7] = Ki towards H2O2 and Cl– (abstract, range over both substrates), chlorinating activity, pH 5.5

Row | Compound | decrease in amount of –SH groups (myeloperoxidase (MPO) [1]; 5 min incubation with MPO/H2O2) | free sulfhydryl groups, percentage relative to CAMP + MPO without H2O2 (myeloperoxidase (MPO) [1]; 5 min incubation) | free sulfhydryl groups, percentage relative to CAMP + MPO without H2O2 (myeloperoxidase (MPO) [1]; 90 min incubation) | IC50 (myeloperoxidase (MPO) [2]; 8 nM MPO heme) | Ki (myeloperoxidase (MPO) [2]; [4]) [µM] | Ki (myeloperoxidase (MPO) [2]; [5]) [µM] | IC50 (myeloperoxidase (MPO) [3]) [µM] | Ki (myeloperoxidase (MPO) [3]; [6]) [nM] | Ki (myeloperoxidase (MPO) [3]; [7]) [nM] | Ki (myeloperoxidase (MPO) [3]; 8 μM pept_1545 or 0.8 μM Hm-AMP8, 5–80 μM H2O2, 150 mM NaCl, 0.8 nM MPO, 50 mM Na-acetate pH 5.5, Hanes–Woolf, read-out: Inhibition constant (Ki) towards H2O2, chlorinating activity) [nM] | formation of dityrosine (MPO) | oxidation of tyrosine residues by MPO (MPO)
1 | CC[C@H](C)[C@H](NC(=O)[C@H](C)NC(=O)[C@H](CCCCN)NC(=O)CNC(=O)[C@@H](NC(=O)[C@H](CC(C)C)NC(=O)[C@@H](N)Cc1ccccc1)[C@@H](C)CC)C(=O)N[C@@H](CCCCN)C(=O)N[C@@H](CCCNC(=N)N)C(=O)N[C@@H](CCCCN)C(=O)N[C@@H](Cc1ccccc1)C(=O)N[C@@H](CS)C(=O)N[C@@H](CC(C)C)C(=O)N[C@@H](CCCNC(=N)N)C(=O)N[C@@H](CO)C(=O)N[C@H](C(=O)N[C@@H](Cc1c[nH]c2ccccc12)C(=O)N[C@@H](CC(N)=O)C(=O)N[C@@H](C)C(N)=O)C(C)C [pept_1545] (H-FLIGKAIKRKFCLRSVWNA-NH2) | about 20% | * 80 ± 4% | * 76 ± 5% | 11200 nM | 52.8 | 48.3 | 7.4 | 19500 | 11000 to 20000 |  |  | 
2 | CC[C@H](C)[C@H](NC(=O)[C@H](C)NC(=O)[C@H](CC(N)=O)NC(=O)[C@H](Cc1ccc(O)cc1)NC(=O)[C@@H]1CCCN1C(=O)[C@@H](NC(=O)[C@H](CCCCN)NC(=O)[C@H](Cc1ccc(O)cc1)NC(=O)[C@@H](NC(=O)[C@@H](NC(=O)[C@H](C)NC(=O)[C@@H](N)CCCNC(=N)N)C(C)C)[C@@H](C)CC)[C@@H](C)CC)C(=O)N[C@@H](C)C(=O)N[C@@H](CO)C(=O)N[C@@H](CCCNC(=N)N)C(=O)N[C@@H](Cc1c[nH]c2ccccc12)C(=O)N[C@H](C(=O)N[C@H](C(=O)N[C@@H](C)C(=O)N1CCC[C@H]1C(=O)N[C@@H](CCCCN)C(=O)N[C@@H](CCCCN)C(=O)N[C@@H](CS)C(N)=O)[C@@H](C)CC)[C@@H](C)CC [Hm-AMP8] (H-RAVIYKIPYNAIASRWIIAPKKC-NH2) |  | 93 ± 5% | * 79 ± 6% | 1700 nM and 2000 nM | 1.79 | 1.1 | 0.3 | 420 | 300 to 400 | 280 |  | 
3 | N-acetyl lysyltyrosylcysteine amide [KYC] |  |  |  |  |  |  |  |  |  |  | formation of dityrosine only by KYS | MPO oxidized tyrosine residues in both KYC and KYS
4 | N-acetyl lysyltyrosylserine amide [KYS] |  |  |  |  |  |  |  |  |  |  | formation of dityrosine only by KYS | MPO oxidized tyrosine residues in both KYC and KYS
